Laboratory results reported in publication PMC5923485 (Viruses, 2018).
Where two headings read alike, the source gives them in different places.

Key:
RVFV MP12 ∆NSs-Luc = test: microbe, parasite or virus in culture; type: cell-based, Rift Valley fever virus; conditions: for inhibition at 100 µM: read-out: inhibition of RVFV MP12-luc
[1] = tested on: S6 ribosomal protein (Ser235/236) phosphorylation and RVFV NP; type: cell-based, mouse
RVFV MP12 = type: cell-based, Rift Valley fever virus
in vitro = conditions: mouse
RVFV = conditions: mouse, in vivo; cited from earlier work

| Compound | effect of increasing drug concentration on viral replication (luciferase) (RVFV MP12 ∆NSs-Luc) | levels of RVFV NP [1] | phosphorylation of S6 ribosomal protein (Ser 235/236) [1] | increase of infectious viral titer (RVFV MP12) | EC50 (RVFV MP12 ∆NSs-Luc; read-out: EC50) [µM] | CC50 (H2.35 cells) [µM] | EC50 (RVFV MP12 ∆NSs-Luc; Rift Valley fever virus, 18 h) [µM] | CC50 (in vitro) [µM] | protection from RVFV induced pathogenesis (RVFV) | inhibition at 100 µM (RVFV MP12 ∆NSs-Luc; Rift Valley fever virus) [%] | cell toxicity (H2.35 cells) | effect on RVFV titers (RVFV MP12) | decrease in viability (H2.35 cells; mouse) |
| --- | --- | --- | --- | --- | --- | --- | --- | --- | --- | --- | --- | --- | --- |
| CC(C)CCN1c2nc(Nc3cc(F)c(O)c(F)c3)ncc2N(C)C(=O)C1C (centres unmarked) [BI-D1870] | viral replication increased | modestly increased | no apparent change | approximately 0.5 log |  |  |  |  |  |  |  |  |  |
| CCc1cncnc1N1CCN(Cc2nc3ccc(C(F)(F)F)cc3[nH]2)CC1 [PF-4708671] |  | decreased | decreased phosphorylation |  | 17 | > 50 |  |  |  |  |  |  |  |
| CO[C@H]1C[C@@H]2CC[C@@H](C)[C@@](O)(O2)C(=O)C(=O)N2CCCC[C@H]2C(=O)O[C@H]([C@H](C)C[C@@H]2CC[C@@H](O)[C@H](OC)C2)CC(=O)[C@H](C)/C=C(\C)[C@@H](O)[C@@H](OC)C(=O)[C@H](C)C[C@H](C)/C=C/C=C/C=C/1C [Rapamycin] |  | markedly decreased | markedly decreased |  |  |  | 18 | > 100 | protects mice |  |  |  |  |
| C[S+]([O-])c1ccc(-c2nc(-c3ccncc3)c(-c3ccc(F)cc3)[nH]2)cc1 (centres unmarked) [SB203580] |  | minimal inhibition | minimal inhibition |  |  |  |  | > 100 |  | 45 | no appreciable cell toxicity | minimal inhibition |  |
| O=C(NOC[C@H](O)CO)c1ccc(F)c(F)c1Nc1ccc(I)cc1F [PD0325901] |  | minimal inhibition | minimal inhibition |  |  |  | > 50 | > 100 |  | 52 |  | minimal inhibition | ~ 20% |
